Molecules are shown by their SMILES.

The test system of assay [1] is Resiniferitoxin-induced mouse ear edema. The experiment in a line: Resiniferitoxin-induced mouse ear edema. In kind it is in vivo. The note with it: Mus musculus, CD1 mice; for inhibition in vivo at 100 mg/kg: ip, intraperitoneal administration; for inhibition in vivo at 10 mg/kg: oral administration; for inhibition in vivo at 50 µg/ear: topical administration, 50 μg/ear, RTX 0.1 μg/ear. The text has this: One of the primary characteristics of inflammation is an increase in vascular dilation and permeability leading to the extravasation of, and collection of fluids in, the interstitium, resulting in redness and swelling. Rheumatoid arthritis in particular is characterized by pronounced edema of affected joints resulting in significant pain and stiffness. The mouse ear inflammation model is a standard in vivo assay for inflammation that is based on an increase in ear weight which is attributable to edema induced by inflammatory mediators. RTX (resiniferitoxin; Sigma; Catalogue No. R 8756)) is a diterpene isolated from the plant Euphorbia poisonii and is an ultrapotent analog of capsaicin. RTX acts by selectively stimulating nociceptive and thermal-sensitive nerve ending in tissue, eliciting neurogenic edema. Compounds of the present invention, whether administered topically, intraperitoneally or orally, inhibited development of edema induced by topical application of RTX.
Mice (CD1, Charles River Laboratories) were separated into groups (n—5−8) and tagged. Control mice had RTX (0.1 μg/ear) applied topically to the inner and outer sides of the left ear and vehicle applied to the right ear as a control. For topical administration, experimental/treatment mice received RTX+test compound solution (50 μg/ear) on the left ear and acetone on the right ear. For intraperitoneal (i.p.) administration, 100 mg/kg test compound dissolved in 100 μL PEG 200:saline (1:1) was injected followed by a 30 minute waiting period then the standard 30 minute RTX edema induction. For oral (p.o.) administration, 10 mg/kg test compound in 100 μL PEG-200 was given to animals, then edema induced using 0.1 μg/ear RTX after a 1.5 hour waiting period. After edema induction, mice were sacrificed, and a standard disc of ear tissue was removed. Each disk of tissue was immediately weighed to the nearest 1/10th of a mg. Data were analyzed by taking the difference of each left ear from the right ear, calculating the mean+/−SEM. Statistical significance was tested by 2-sample t-test on the left/right ear weight differences of the control group vs. the experimental group.

Another assay deals with T1, PDE 5 (human platelets) (Homo sapiens, UniProt O76074).
T1 construct: PDE's for the various assays were partially purified from the following cells/tissues; tissue MDS Panlabs (assay service); host or cells: human platelets
The experiment in a line: PDE isozyme specificity: PDE 5. In kind it is biochemical. The settings on record: for inhibition at 100 µM: read-out: % inhibition by 100 μM test compound 1-25, PDE5, X marks this range. The text has this: Compound 12 was screened for activity against 5 of the major classes of mammalian cyclic nucleotide phosphodiesterase (termed PDE 1 through 5). PDE's 1 through 4 utilize cAMP as substrate while PDE 5 uses cGMP. The broad specificity PDE inhibitor 3-isobutyl-1-methylxanthine (IBMX; Sigma; Catalogue No. 17018)) was used as a positive control in all assays. PDE's for the various assays were partially purified from the following cells/tissues; PDE 1 (bovine heart), PDE 2 (human platelets), PDE 3 (human platelets), PDE 4 (human promonocytic U937 cells) and PDE 5 (human platelets).
Test compounds (at 100 μM) were screened for activity against PDE 1,2 and 5, using standard biochemical methods performed at MDS Panlabs (Bothell, Wash., USA). The broad specificity PDE inhibitor 3-isobutyl-1-methylxanthine (IBMX) was used as a positive control in all assays. PDE's for the various assays were partially purified from the following cells/tissues; PDE 1 (bovine heart), PDE 2 (human platelets) and PDE 5 (human platelets). For purposes of comparison, the effects on PDE3 (human platelets) and PDE4 (human U937 monocytic cell line) described above are presented again in Table 12.

Assay [2] has as its system mixed-lymphocyte-reaction. The experiment in a line: One way and two way mixed-lymphocyte-reaction (MLR). In kind it is cell-based. The settings on record: read-out: inhibition of proliferation in MLR.
The next assay concerns naive CD4+ T-cells. Nature of the assay: Naive CD4+ T-cell proliferation (AND-TCR transgenic). In kind it is cell-based, mouse. The procedure:
AND-TCR transgenic mice (Kaye J. et al., Nature 341:746-749, 1989) were used to provide a source of naive-antigen specific CD4+T cells. The AND-T cell antigen receptor recognizes a peptide derived from pigeon cytochrome C (pcc) in the context of the I-E^k class II MHC molecule.
To examine the role of a test compound in naive CD4 T cell activation and proliferation, 1×10^5 AND-lymph node T cells were cultured with 1×10^6 irradiated B10.BR spleen cells in the presence of varying concentrations of pcc peptide (0-10 μM) in 96 well plates. Proliferation was assessed by ^3H thymidine incorporation. All assay conditions were conducted in triplicate. Cell surface activation phenotype of T cells was assessed by flow cytometric analysis.

Assay [3] has as its system K562 chronic myelogenous leukemia cells. The experiment in a line: Anti-proliferative activity in K562 cells (3H-thymidine uptake). In kind it is cell-based, human. The settings on record: for IC50: Homo sapiens, K562, 48 hours, 3H-thymidine, X marks this range, read-out: IC50 range (μM) >50. As for the experimental part: 90 μL K562 cells (human chronic myelogenous leukemia cells) were seeded into sterile 96-well assay plates at a density of 1×10^5 cells/mL in RPMI 1640 supplemented with 10% FBS/2 mM L-glutamine. Samples to be tested were prepared in a sterile 96-well assay plate at 10×the final concentration desired. All sample dilutions contained equal amounts of DMSO to compensate for the % DMSO in the highest sample concentration used. Nine concentrations of test compound were examined for effects on growth up to a maximal concentration of 100 μM. 10 μL of the samples and controls (DMSO/normal growth control) were added to the aliquoted cells. The cells were incubated at 37° C./5% CO2 for 48 hours. Following 48 hour incubation, 20 μL of 3H-thymidine was added to each well for a final concentration of 1 μCi/mL. The cells were then incubated at 37° C./5% CO2 for 4 to 6 hours. Following 4-6 hour thymidine pulse, plates were wrapped in plastic and frozen in a −20° C. frost-free freezer overnight. Cells were harvested and ^3H-thymidine counts determined. In order to distinguish between cytotoxicity and cytostatic activity, growth curves were prepared where the average CPM value of the seeding density of cells was plotted on the same curve as the average CPM value for the maximum proliferation attained after 48 hours (DMSO growth control cells). The cells were diluted 1:2 for a concentration range of 7.8×10^3 cells/mL to 2×10^6 cells/mL. 90 μL of each cell dilution was seeded in sterile 96-well assay plated and allowed to equilibrate for approximately 4 hours at 37° C./5% CO2 prior to ^3H-thymidine pulse. The data in Table 15 was obtained as described above, and more specifically, K562 cells were seeded into 96-well plates at 1×10^5 cells/mL in RPMI 1640 supplemented with 10% FBS/2 mM L-glutamine. Various concentrations of test compound or vehicle (DMSO) was added and the cells were incubated at 37° C./5 CO2 for 48 hours. The cells were then pulsed at 37° C./5% CO2 for 4 to 6 hours with 1 μCi/mL ^3H-thymidine. Radioactivity incorporated into DNA was determined after harvesting onto glass fiber filters and scintillation counting.

In assay [1], `COc1cc(CC2C[C@@H](c3ccc(OC)c(OC4CCCC4)c3)COC2=O)ccc1O` (stereo partly drawn) [Compound 43] showed an inhibition in vivo at 100 mg/kg of 72%, an inhibition in vivo at 10 mg/kg of 45% and an inhibition in vivo at 50 µg/ear of 98%. Further, the inhibition at 100 µM on PDE 5 (human platelets) is 1 to 25%. For the same molecule, in assay [2], the inhibition at 20 µM was no less than 50%. The molecule further had an inhibition at 5 µM in the assay with naive CD4+ T-cells (Mus musculus, T-cell, @5 μM) greater than 70%.

In assay [1], `COc1cc(C[C@@H]2C[C@@H](c3ccc(OC)c(OC)c3)COC2=O)ccc1O` [Compound 30] had an inhibition in vivo at 100 mg/kg of 28% and an inhibition in vivo at 50 µg/ear of 98%.

Molecule `COc1cc(CC2C[C@@H](c3ccc(OC)c(OC4CCCC4)c3)CNC2=O)ccc1O` (stereo partly drawn) [Compound 62] yielded an inhibition in vivo at 10 mg/kg in assay [1] of 30%.

In assay [1], `COc1cc(C[C@@H]2CC(c3ccc(OC)c(OC)c3)COC2=O)ccc1O` (mixture of isomers) [Compound 12] had an inhibition in vivo at 100 mg/kg of 61% and an inhibition in vivo at 50 µg/ear of 85%. Also, on PDE 5 (human platelets) (human platelets, cGMP substrate), the “inhibitory effect on PDE 5” value is “no significant inhibitory effects”. Moreover, the inhibition at 100 µM at PDE 5 (human platelets) was in the range of 1 to 25%.

For `COc1ccc(C2CNC(=O)C2)cc1OC1CCCC1` (stereo not drawn) [Rolipram, reference compound], in assay [3], the “effect on proliferative ability / cell cycle of K-562 cells” value was “failed to have any effect” and the IC50 was greater than 50 µM. Also, in the assay with naive CD4+ T-cells (all T-cell populations, control phosphodiesterase IV inhibitor), the “inhibition of T-cell populations” value is “uniformly inhibitory”.

Take `COc1ccc([C@@H]2CCC(=O)OC2)cc1OC1CCCC1` [Compound 41]: at PDE 5 (human platelets), the inhibition at 100 µM was 1 to 25%. Besides, in assay [3], the IC50 is greater than 50 µM.

Values taken from patent publication US20030186943A1, “Substituted gamma-phenyl-delta-lactams and uses related thereto” (Inflazyme Pharmaceuticals Ltd., priority 1998, published 2003).
